Measurements published in patent US9409905B2, “Antibacterial compounds and methods for use” (PTC THERAPEUTICS, INC., priority 2011, dated 2016).
In brackets after ≈: the same amount, converted by molar mass.

Columns and labels:
[1] = test system: A. baumannii MXX2240; experiment: Antibacterial activity, MIC, resistant strain (Table 4); format: cell-based; conditions: Acinetobacter baumannii, MXX2240; resistant A. baumannii MMX2240, multi-drug resistant clinical isolate; read-out: MIC, MMX2240
Excerpt: (§1) The antibacterial activity from a microbroth dilution method may be presented as the minimum inhibitory concentration (MIC in μg/mL). The MIC value is the lowest concentration of drug which prevents macroscopically visible growth under test conditions.
(§2) Antibacterial activity of test compounds against the Gram-negative Acinetobacter baumannii (A. baumannii) BAA747 and Klebsiella pneumoniae (K. pneumoniae) 35657 bacterium and the resistant A. baumannii MXX2240 and K. pneumoniae MXX1232 strains are shown in Table 4. The MMX strains are multi-drug resistant clinical isolates.

[2] = test system: K. pneumoniae MXX1232; experiment: as above; format: cell-based; conditions: Klebsiella pneumoniae, MXX1232; resistant K. pneumoniae MMX1232, multi-drug resistant clinical isolate; read-out: MIC, MMX1232
Excerpt: as §1, §2

[3] = test system: Pseudomonas aeruginosa (P. aeruginosa) 27853; experiment: Antibacterial activity, MIC (Table 5); format: cell-based; conditions: P. aeruginosa 27853, read-out: MIC, 27853
Excerpt: as §1
Antibacterial activity of test compounds against the Gram-negative bacterium Pseudomonas aeruginosa (P. aeruginosa) 27853 is shown in Table 5.

[4] = test system: E. coli LZ3111; experiment: Antibacterial activity, MIC, quinolone resistant strain (Table 2); format: cell-based; conditions: Escherichia coli, LZ3111, read-out: MIC LZ3111
How it was run: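 Strain carries mutations conferring high-level quinolone resistance; tested by microbroth dilution, MIC recorded in μg/mL as lowest concentration preventing visible growth.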

[5] = test system: Klebsiella pneumoniae (K. pneumoniae) 35657; experiment: Antibacterial activity, MIC (Table 4); format: cell-based; conditions: K. pneumoniae 35657, read-out: MIC, 35657
Excerpt: as §1, §2

[6] = test system: Acinetobacter baumannii (A. baumannii) BAA747; experiment: Antibacterial activity, MIC (Table 4); format: cell-based; conditions: A. baumannii BAA747, read-out: MIC, BAA747
Excerpt: as §1, §2

[7] = test system: E. coli 25922; experiment: Antibacterial activity, microbroth dilution MIC (Table 1); format: cell-based, Escherichia coli; conditions: Escherichia coli; microbroth dilution; control Gram-negative E. coli 25922 strain; read-out: MIC, 25922
How it was run: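 Broth microdilution against S. aureus 29213, E. coli 25922 and hypersensitive E. coli BAS849. MIC in μg/mL is the lowest drug concentration preventing macroscopically visible growth under test conditions.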

[8] = test system: Escherichia coli (E. coli) BAS849; experiment: as above; format: cell-based; conditions: microbroth dilution, super sensitive Gram-negative E. coli BAS849, read-out: MIC, BAS849
How it was run: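 Potency is reported as minimum inhibitory concentration in μg/mL, determined by broth microdilution as the lowest level of compound that stops growth visible to the eye.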

[9] = test system: Staphylococcus aureus (S. aureus) 29213; experiment: as above; format: cell-based; conditions: microbroth dilution, Gram-positive S. aureus 29213, read-out: MIC, 29213
How it was run: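 Using broth microdilution, MIC endpoints (μg/mL) mark where visible growth no longer appears; the panel spans sensitive and control Gram-negative strains plus a Gram-positive strain.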

Compound	MIC [1] [µg/mL]	MIC [2] [µg/mL]	MIC [3] [µg/mL]	MIC [4] [µg/mL]	MIC [5] [µg/mL]	MIC [6] [µg/mL]	MIC [7] [µg/mL]	MIC [8] [µg/mL]	MIC [9] [µg/mL]
COCCNCc1cc2cc(-c3[nH]c(=O)c(C(=O)O)c(O)c3C)ccc2n1C [Cpd 341, 4-hydroxy-6-(2-((2-methoxyethylamino)methyl)-1-methyl-1H-indol-5-yl)-5-methyl-2-oxo-1,2-dihydropyridine-3-carboxylic acid]	1 to 3.5 (≈ 2.59 to 9.08 µM)	12.5 to 150 (≈ 32.4 to 389 µM)	12.5 to 150 (≈ 32.4 to 389 µM)	< 1	3.5 to 12.5 (≈ 9.08 to 32.4 µM)	3.5 to 12.5 (≈ 9.08 to 32.4 µM)	3.5 to 12.5 (≈ 9.08 to 32.4 µM)	< 1	12.5 to 150 (≈ 32.4 to 389 µM)
CCNCc1cc2cc(-c3[nH]c(=O)c(C(=O)O)c(O)c3C)ccc2n1C [Cpd 342, 6-(2-((ethylamino)methyl)-1-methyl-1H-indol-5-yl)-4-hydroxy-5-methyl-2-oxo-1,2-dihydropyridine-3-carboxylic acid]	1 to 3.5 (≈ 2.81 to 9.85 µM)	12.5 to 150 (≈ 35.2 to 422 µM)	12.5 to 150 (≈ 35.2 to 422 µM)	< 1	< 1	3.5 to 12.5 (≈ 9.85 to 35.2 µM)	1 to 3.5 (≈ 2.81 to 9.85 µM)	< 1	12.5 to 150 (≈ 35.2 to 422 µM)
Cc1c(-c2ccc3c(c2)cc(CNCCN)n3C)[nH]c(=O)c(C(=O)O)c1O [Cpd 343, 6-(2-((2-aminoethylamino)methyl)-1-methyl-1H-indol-5-yl)-4-hydroxy-5-methyl-2-oxo-1,2-dihydropyridine-3-carboxylic acid]	12.5 to 150 (≈ 33.7 to 405 µM)	12.5 to 150 (≈ 33.7 to 405 µM)	12.5 to 150 (≈ 33.7 to 405 µM)	12.5 to 150 (≈ 33.7 to 405 µM)	12.5 to 150 (≈ 33.7 to 405 µM)	12.5 to 150 (≈ 33.7 to 405 µM)	12.5 to 150 (≈ 33.7 to 405 µM)	12.5 to 150 (≈ 33.7 to 405 µM)	12.5 to 150 (≈ 33.7 to 405 µM)
CNCCNCc1cc2cc(-c3[nH]c(=O)c(C(=O)O)c(O)c3C)ccc2n1C [Cpd 344, 4-hydroxy-5-methyl-6-(1-methyl-2-((2-(methylamino)ethylamino)methyl)-1H-indol-5-yl)-2-oxo-1,2-dihydropyridine-3-carboxylic acid]	12.5 to 150 (≈ 32.5 to 390 µM)	12.5 to 150 (≈ 32.5 to 390 µM)	12.5 to 150 (≈ 32.5 to 390 µM)	12.5 to 150 (≈ 32.5 to 390 µM)	12.5 to 150 (≈ 32.5 to 390 µM)	12.5 to 150 (≈ 32.5 to 390 µM)	12.5 to 150 (≈ 32.5 to 390 µM)	12.5 to 150 (≈ 32.5 to 390 µM)	12.5 to 150 (≈ 32.5 to 390 µM)
Cc1c(-c2ccc3c(c2)cc(CNCCN(C)C)n3C)[nH]c(=O)c(C(=O)O)c1O [Cpd 345, 6-(2-((2-(dimethylamino)ethylamino)methyl)-1-methyl-1H-indol-5-yl)-4-hydroxy-5-methyl-2-oxo-1,2-dihydropyridine-3-carboxylic acid]	12.5 to 150 (≈ 31.4 to 376 µM)	12.5 to 150 (≈ 31.4 to 376 µM)	12.5 to 150 (≈ 31.4 to 376 µM)	1 to 3.5 (≈ 2.51 to 8.78 µM)	12.5 to 150 (≈ 31.4 to 376 µM)	12.5 to 150 (≈ 31.4 to 376 µM)	12.5 to 150 (≈ 31.4 to 376 µM)	3.5 to 12.5 (≈ 8.78 to 31.4 µM)	12.5 to 150 (≈ 31.4 to 376 µM)
COCC(C)NCc1cc2cc(-c3[nH]c(=O)c(C(=O)O)c(O)c3C)ccc2n1C (stereo not drawn) [Cpd 346, 4-hydroxy-6-(2-((1-methoxypropan-2-ylamino)methyl)-1-methyl-1H-indol-5-yl)-5-methyl-2-oxo-1,2-dihydropyridine-3-carboxylic acid]	3.5 to 12.5 (≈ 8.76 to 31.3 µM)	12.5 to 150 (≈ 31.3 to 376 µM)	12.5 to 150 (≈ 31.3 to 376 µM)	3.5 to 12.5 (≈ 8.76 to 31.3 µM)	3.5 to 12.5 (≈ 8.76 to 31.3 µM)	3.5 to 12.5 (≈ 8.76 to 31.3 µM)	12.5 to 150 (≈ 31.3 to 376 µM)	< 1	12.5 to 150 (≈ 31.3 to 376 µM)
CCC(C)NCc1cc2cc(-c3[nH]c(=O)c(C(=O)O)c(O)c3C)ccc2n1C (stereo not drawn) [Cpd 347, 6-(2-((sec-butylamino)methyl)-1-methyl-1H-indol-5-yl)-4-hydroxy-5-methyl-2-oxo-1,2-dihydropyridine-3-carboxylic acid]	< 1	12.5 to 150 (≈ 32.6 to 391 µM)	12.5 to 150 (≈ 32.6 to 391 µM)	1 to 3.5 (≈ 2.61 to 9.13 µM)	1 to 3.5 (≈ 2.61 to 9.13 µM)	< 1	3.5 to 12.5 (≈ 9.13 to 32.6 µM)	< 1	12.5 to 150 (≈ 32.6 to 391 µM)
Cc1c(-c2ccc3c(c2)cc(CNC(C)C)n3C)[nH]c(=O)c(C(=O)O)c1O [Cpd 348, 4-hydroxy-6-(2-((isopropylamino)methyl)-1-methyl-1H-indol-5-yl)-5-methyl-2-oxo-1,2-dihydropyridine-3-carboxylic acid]	1 to 3.5 (≈ 2.71 to 9.47 µM)	12.5 to 150 (≈ 33.8 to 406 µM)	12.5 to 150 (≈ 33.8 to 406 µM)	1 to 3.5 (≈ 2.71 to 9.47 µM)	1 to 3.5 (≈ 2.71 to 9.47 µM)	1 to 3.5 (≈ 2.71 to 9.47 µM)	3.5 to 12.5 (≈ 9.47 to 33.8 µM)	< 1	12.5 to 150 (≈ 33.8 to 406 µM)
Cc1c(-c2ccc3c(c2)cc(CNC(C)CO)n3C)[nH]c(=O)c(C(=O)O)c1O (stereo not drawn) [Cpd 349, 4-hydroxy-6-(2-((1-hydroxypropan-2-ylamino)methyl)-1-methyl-1H-indol-5-yl)-5-methyl-2-oxo-1,2-dihydropyridine-3-carboxylic acid]	12.5 to 150 (≈ 32.4 to 389 µM)	12.5 to 150 (≈ 32.4 to 389 µM)	12.5 to 150 (≈ 32.4 to 389 µM)	3.5 to 12.5 (≈ 9.08 to 32.4 µM)	3.5 to 12.5 (≈ 9.08 to 32.4 µM)	12.5 to 150 (≈ 32.4 to 389 µM)	12.5 to 150 (≈ 32.4 to 389 µM)	1 to 3.5 (≈ 2.59 to 9.08 µM)	12.5 to 150 (≈ 32.4 to 389 µM)
